Assay [1] deals with Dihydroorotate dehydrogenase (quinone), mitochondrial (Homo sapiens, UniProt Q02127). Put plainly: Inhibition of human […] dehydrogenase expressed in Escherichia coli BL21(DE3) using […] as substrate by DCIP-based colorimetric analysis.
Assay [2] has as its target T1, Dihydroorotate dehydrogenase (Plasmodium falciparum, UniProt Q54A96).
T1 sequence (Q54A96 whole entry): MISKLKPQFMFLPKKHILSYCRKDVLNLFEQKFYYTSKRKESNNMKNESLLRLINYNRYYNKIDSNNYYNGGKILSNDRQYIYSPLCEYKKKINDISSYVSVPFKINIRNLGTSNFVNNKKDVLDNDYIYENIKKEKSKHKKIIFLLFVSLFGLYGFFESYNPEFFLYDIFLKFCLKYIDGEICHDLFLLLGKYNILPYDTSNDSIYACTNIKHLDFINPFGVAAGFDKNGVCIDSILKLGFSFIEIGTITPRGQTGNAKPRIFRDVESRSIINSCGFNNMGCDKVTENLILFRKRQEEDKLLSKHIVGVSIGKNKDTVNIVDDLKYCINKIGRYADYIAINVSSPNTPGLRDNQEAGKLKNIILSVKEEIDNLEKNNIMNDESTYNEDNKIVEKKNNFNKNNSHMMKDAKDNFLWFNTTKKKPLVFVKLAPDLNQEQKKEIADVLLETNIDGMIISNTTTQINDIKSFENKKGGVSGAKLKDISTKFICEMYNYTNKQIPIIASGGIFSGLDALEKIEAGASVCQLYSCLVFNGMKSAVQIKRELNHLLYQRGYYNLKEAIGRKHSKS
The assay is described as follows: Inhibition of Plasmodium falciparum […] dehydrogenase expressed in Escherichia coli BL21(DE3) using […] as substrate by DCIP-based colorimetric analysis.

For assay [3], the species on record is Homo sapiens. The assay is described as follows: Ratio of IC50 for human dihydrofolate dehydrogenase Y147C mutant to IC50 for human wild type dihydrofolate dehydrogenase.
For assay [4], the system named is T2, Dihydroorotate dehydrogenase (quinone), mitochondrial (Plasmodium falciparum (isolate 3D7)), Q08210 [H185A].
T2 sequence (whole entry): T1 sequence (Q54A96 whole entry) with H185A
The assay is described as follows: Inhibition of Plasmodium falciparum […] dehydrogenase H185A mutant expressed in Escherichia coli BL21(DE3) using […] as substrate at 100 uM by DCIP-based colorimetric analysis.

The species named for assay [5] is Homo sapiens. The assay is described as follows: Ratio of IC50 for human dihydrofolate dehydrogenase Y147A mutant to IC50 for human wild type dihydrofolate dehydrogenase.
Assay [6] relates to T3, Dihydroorotate dehydrogenase (quinone), mitochondrial (Plasmodium falciparum (isolate 3D7)), Q08210 [F188Y].
T3 sequence (whole entry): T1 sequence (Q54A96 whole entry) with F188Y
Put plainly: Inhibition of Plasmodium falciparum […] dehydrogenase F188Y mutant expressed in Escherichia coli BL21(DE3) using […] as substrate at 100 uM by DCIP-based colorimetric analysis.

For assay [7], the system named is Plasmodium falciparum. Put plainly: Ratio of IC50 for Plasmodium falciparum […] dehydrogenase C276A mutant to IC50 for Plasmodium falciparum wild type […] dehydrogenase.
The subject of assay [8] is T4, Dihydroorotate dehydrogenase (quinone), mitochondrial (Plasmodium falciparum (isolate 3D7)), Q08210 [C276Y].
T4 sequence (whole entry): T1 sequence (Q54A96 whole entry) with C276Y
Put plainly: Inhibition of Plasmodium falciparum […] dehydrogenase C276Y mutant expressed in Escherichia coli BL21(DE3) using […] as substrate at 100 uM by DCIP-based colorimetric analysis.

The species entered for assay [9] is Homo sapiens. Put plainly: Ratio of IC50 for human dihydrofolate dehydrogenase Y147F mutant to IC50 for human wild type dihydrofolate dehydrogenase.
Assay [10] concerns T5, Dihydroorotate dehydrogenase (quinone), mitochondrial (Plasmodium falciparum (isolate 3D7)), Q08210 [C276F].
T5 sequence (whole entry): T1 sequence (Q54A96 whole entry) with C276F
Put plainly: Inhibition of Plasmodium falciparum […] dehydrogenase C276F mutant expressed in Escherichia coli BL21(DE3) using […] as substrate at 100 uM by DCIP-based colorimetric analysis.

The species entered for assay [11] is Homo sapiens. The assay is described as follows: Ratio of IC50 for human […] dehydrogenase H56A mutant to IC50 for human wild type […] dehydrogenase.
The species entered for assay [12] is Homo sapiens. The assay is described as follows: Inhibition of human […] dehydrogenase Y147C mutant expressed in Escherichia coli BL21(DE3) using […] as substrate at 100 uM by DCIP-based colorimetric analysis.
The species entered for assay [13] is Homo sapiens. The assay is described as follows: Inhibition of human […] dehydrogenase H56A mutant expressed in Escherichia coli BL21(DE3) using […] as substrate at 100 uM by DCIP-based colorimetric analysis.
For assay [14], the species on record is Homo sapiens. The assay is described as follows: Inhibition of human […] dehydrogenase Y147A mutant expressed in Escherichia coli BL21(DE3) using […] as substrate at 100 uM by DCIP-based colorimetric analysis.
Assay [15] has as its system Plasmodium falciparum. The assay is described as follows: Ratio of IC50 for Plasmodium falciparum […] dehydrogenase F188A mutant to IC50 for Plasmodium falciparum wild type […] dehydrogenase.
Assay [16] has as its system Plasmodium falciparum. The assay is described as follows: Ratio of IC50 for Plasmodium falciparum […] dehydrogenase C276F mutant to IC50 for Plasmodium falciparum wild type […] dehydrogenase.
Assay [17] has as its system Plasmodium falciparum. The assay is described as follows: Ratio of IC50 for Plasmodium falciparum […] dehydrogenase H185A mutant to IC50 for Plasmodium falciparum wild type […] dehydrogenase.
The test system of assay [18] is Plasmodium falciparum. Put plainly: Ratio of IC50 for Plasmodium falciparum […] dehydrogenase C276Y mutant to IC50 for Plasmodium falciparum wild type […] dehydrogenase.
For assay [19], the species on record is Homo sapiens. Put plainly: Inhibition of human […] dehydrogenase Y147F mutant expressed in Escherichia coli BL21(DE3) using […] as substrate at 100 uM by DCIP-based colorimetric analysis.

Where a chain is given by its changes, count along the chain named.

From ChEMBL document CHEMBL2177061, “Factors influencing the specificity of inhibitor binding to the human and malaria parasite dihydroorotate dehydrogenases” (J Med Chem, 2012) come the findings set out here.

Chain of Dihydroorotate dehydrogenase (quinone), mitochondrial (Q02127 whole entry): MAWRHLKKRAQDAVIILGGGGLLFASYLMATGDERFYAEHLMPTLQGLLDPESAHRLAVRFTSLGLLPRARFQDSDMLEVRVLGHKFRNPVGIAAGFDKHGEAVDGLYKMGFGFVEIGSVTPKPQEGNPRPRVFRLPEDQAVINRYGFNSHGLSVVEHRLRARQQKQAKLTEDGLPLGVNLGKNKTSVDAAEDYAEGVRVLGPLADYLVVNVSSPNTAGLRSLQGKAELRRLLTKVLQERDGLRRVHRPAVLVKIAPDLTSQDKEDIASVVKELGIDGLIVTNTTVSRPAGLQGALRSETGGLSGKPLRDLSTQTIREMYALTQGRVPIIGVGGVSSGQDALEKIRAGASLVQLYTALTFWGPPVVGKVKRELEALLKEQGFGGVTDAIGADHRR

Take `Cc1cc(O)n2nc(SCc3ccc(Br)cc3)nc2n1`: the values for the IC50 in [1] and in assay [2] were 32 µM and 33 µM, respectively.
As to `Cc1cc(O)n2nc(SCc3cccc(Cl)c3)nc2n1`, the 50% inhibitory concentration (IC50) in assay [1] stood at 29 µM; in assay [2], 5.6 µM.
With `Cc1cc(O)n2nc(SCc3c(Cl)cccc3Cl)nc2n1`, the IC50 in assay [1] stood at 18 µM; in [2] it was 3.5 µM.
For `Cc1cc(O)n2nc(SCc3ccccc3[N+](=O)[O-])nc2n1`, in that order: 9.5 µM and above 100 µM.
Turning to `Cc1cc(O)n2nc(SCc3cc(Cl)ccc3Cl)nc2n1`, the Ratio IC50 came to 14 in the assay listed under Homo sapiens [3]; 20 in the assay filed under Homo sapiens [5]; 3.7 with Plasmodium falciparum [7]; 1.1 in the assay listed under Homo sapiens [9]; 7.1 in the assay listed under Homo sapiens [11]. Further, the inhibition in assay [4], in [6], in assay [8] and in assay [10] was below 50% in each case. For the same compound, the values for the half-inhibitory concentration (IC50) in [1] and in [2] were 0.051 µM and 11 µM, respectively.
Turning to `COc1ccc(CSc2nc3nc(C)cc(O)n3n2)cc1`, the IC50 amounted to 63 µM in [1] and 21 µM in [2].
Taken in the same sequence, the figures for `Cc1ccc(CSc2nc3[nH]c(C)cc(=O)n3n2)cc1` were 46 µM and 26 µM.
Turning to `Cc1cc(O)n2nc(SCc3ccccc3Cl)nc2n1`, the IC50 in assay [1] turned out to be 12 µM; in assay [2], 28 µM.
On to `Cc1cc(N)n2nc(SCc3ccccc3)nc2n1`, for which the concentration for half-maximal inhibition (IC50) in assay [1] and in assay [2] was above 100 µM throughout.
Regarding `Cc1cc(C)cc(CSc2nc3nc(C)cc(O)n3n2)c1`, the 50% inhibitory concentration (IC50) was found to be 30 µM in assay [1] and 19 µM in assay [2].
On to `Cc1cc(O)n2nc(SCc3ccc(Cl)c(Cl)c3)nc2n1`, for which the inhibition (in assay [4]; in assay [6]; in the assay filed under Homo sapiens [12]; in the assay listed under Homo sapiens [13]; in the assay filed under Homo sapiens [14]; in [8]) was below 50% throughout. This compound returned an inhibition in assay [10] below 50%. Further, the IC50 in [1] was found to be 6.5 µM; in assay [2], 1.9 µM. Moreover, the Ratio IC50 in the assay on Plasmodium falciparum [7] amounted to 2; in the assay filed under Homo sapiens [9] it was 8.8.
With `Cc1cc(N)n2nc(SCc3ccc(Cl)c(Cl)c3)nc2n1`, the 50% inhibitory concentration (IC50) in assay [1] and in assay [2] was above 100 µM in each case.
For the compound `CCc1cc(O)n2nc(SCc3ccc(Cl)cc3)nc2n1`, the figures for the half-maximal inhibitory concentration (IC50) in [1] and in [2] were 13 µM and above 100 µM, respectively.
Regarding `Cc1cc(O)n2nc(SCc3ccccc3)nc2n1`, the IC50 came to 89 µM in [1] and 62 µM in assay [2].
As to `Cc1cc(Nc2ccc3ccccc3c2)n2ncnc2n1`, the Ratio IC50 in the assay on Plasmodium falciparum [15] was determined as 29; in the assay with Plasmodium falciparum [16] it was 2.3; in the assay on Plasmodium falciparum [7], 0.69; in the assay on Plasmodium falciparum [17], 19; in the assay with Plasmodium falciparum [18], 3.5.
In the case of `Cc1cc(=O)n2nc(SCc3ccc(Cl)cc3)nc2[nH]1`, the inhibition (in [4]; in the assay listed under Homo sapiens [19]; in [6]; in the assay filed under Homo sapiens [12]; in the assay filed under Homo sapiens [13]; in the assay listed under Homo sapiens [14]) was below 50% each time. Moreover, the inhibition in assay [8] and in [10] was below 50% each time. The figures for the concentration for half-maximal inhibition (IC50) in assay [1] and in assay [2] were 39 µM and 1 µM, respectively. In addition, the Ratio IC50 with Plasmodium falciparum [7] was determined as 1.5.
Turning to `Cc1cc(NCc2ccccc2)n2nc(SCc3ccccc3)nc2n1`, the IC50 in assay [1] and in assay [2] was above 100 µM each time.
